Test results taken from patent US20110044938A1 (NYCOMED GMBH, priority 2006, published 2011).

What was measured:
[1] = tested on: subclones of RKO colon adenocarcinoma cells (RKOp27 or RKOp21) arrested by Ponasterone A; experiment: Alamar Blue cell viability assay, cell cycle specific mode of action: cells arrested by ectopic p27Kip1 induced by Ponasterone A versus proliferating cells; format: cell-based; details: Homo sapiens, RKO p27 induced (arrested) cells, 10 μM Ponasterone A, 72 hours, value = class bound given in Table A, read-out: −logIC50 RKO p27 induced (arrested) (converted)
In short: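 Viability of proliferating versus Ponasterone A (10 μM)-arrested RKOp27/RKOp21 cells after 72 h compound exposure at 37° C, in quadruplicate. Read-out is Alamar Blue fluorescence (544/590 nm) normalised to untreated cells = 100%; values as −log IC50.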

[2] = tested on: RKO (RKOp27) human colon adenocarcinoma cells; experiment: Alamar Blue cell viability assay, anti-proliferative/cytotoxic activity on proliferating RKO subclones; format: cell-based; details: RKOp27, 72 h, RKO p27 uninduced (proliferating) cells, value = class bound given in Table A, read-out: −logIC50 RKO p27 uninduced (proliferating) (converted)
In short: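 Alamar Blue fluorescence (ex 544, em 590 nm) after 72 h compound exposure at 37 °C, 5% CO2, normalised to untreated controls set at 100%. Cells were seeded at 5000 per well and dosed 24 h later with serial semi-logarithmic dilutions in 10% FCS DMEM, four replicates each. −log IC50 [mol/l] was derived from concentration-effect curves.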

| SMILES | IC50 [1] [nM] | IC50 [2] [nM] |
| --- | --- | --- |
| CCOc1ccccc1CCC(=O)Nc1sc2c(c1C#N)CCC(OC(=O)NCc1ccccn1)C2 (stereo not shown) [Example 174, Pyridin-2-ylmethyl-carbamic acid 3-cyano-2-[3-(2-ethoxy-phenyl)-propanoylamino]-4,5,6,7-tetrahydro-benzo[b]thiophen-6-yl ester] | ≥ 100000 | ≤ 501 |
| CC(CC(=O)Nc1sc2c(c1C#N)CCC(OC(=O)NC1CCOCC1)C2)c1ccccc1 (stereo not shown) [Example 291, (Tetrahydro-pyran-4-yl)-carbamic acid 3-cyano-2-(3-phenyl-butanoyl-amino)-4,5,6,7-tetrahydro-benzo[b]thiophen-6-yl ester] | ≥ 10000 | ≤ 501 |
| N#Cc1c(NC(=O)/C=C/c2cccnc2)sc2c1CCC(COC(=O)NCC1CC1)C2 (stereo not shown) [Example 105, Cyclopropylmethyl-carbamic acid 3-cyano-2-((E)-3-pyridin-3-yl-allanoylamino)-4,5,6,7-tetrahydro-benzo[b]thiophen-6-ylmethyl ester] | ≥ 100000 | ≤ 501 |
| CCOc1ccccc1CCC(=O)Nc1sc2c(c1C#N)CCC(COC(=O)NCc1conc1C)C2 (stereo not shown) [Example 198, (3-Methyl-isoxazol-4-ylmethyl)-carbamic acid 3-cyano-2-[3-(2-ethoxy-phenyl)-propanoylamino]-4,5,6,7-tetrahydro-benzo[b]thiophen-6-ylmethyl ester] | ≥ 100000 | ≤ 501 |
| Cc1nn(C)cc1CNC(=O)OC1CCc2c(sc(NC(=O)CC(C)c3ccccc3)c2C#N)C1 (stereo not shown) [Example 301, (1,3-Dimethyl-1H-pyrazol-4-ylmethyl)-carbamic acid 3-cyano-2-(3-phenyl-butanoylamino)-4,5,6,7-tetrahydro-benzo[b]thiophen-6-yl ester] | ≥ 50100 | ≤ 501 |
| COc1cccc(C(C)CC(=O)Nc2sc3c(c2C#N)CCC(OC(=O)NCc2ccnn2C)C3)c1 (stereo not shown) [Example 277, (2-Methyl-2H-pyrazol-3-ylmethyl)-carbamic acid 3-cyano-2-[3-(3-methoxy-phenyl)-butanoylamino]-4,5,6,7-tetrahydro-benzo[b] thiophen-6-yl ester] | ≥ 100000 | ≤ 501 |
| COc1cccc(C(C)CC(=O)Nc2sc3c(c2C#N)CCC(OC(=O)NCc2cn(C)nc2C)C3)c1 (stereo not shown) [Example 276, (1,3-Dimethyl-1H-pyrazol-4-ylmethyl)-carbamic acid 3-cyano-2-[3-(3-methoxy-phenyl)-butanoylamino]-4,5,6,7-tetrahydro-benzo[b]thiophen-6-yl ester] | ≥ 100000 | ≤ 501 |
| COc1cccc(CCC(=O)Nc2sc3c(c2C#N)CCC(OC(=O)NCc2conc2C)C3)c1 (stereo not shown) [Example 228, (3-Methyl-isoxazol-4-ylmethyl)-carbamic acid 3-cyano-2-[3-(3-methoxy-phenyl)-propanoylamino]-4,5,6,7-tetrahydro-benzo[b]thiophen-6-yl ester] | ≥ 100000 | ≤ 501 |
| Cn1cccc1CNC(=O)OC1CCc2c(sc(NC(=O)/C=C/c3cccnc3)c2C#N)C1 (stereo not shown) [Example 56, (1-Methyl-1H-pyrrol-2-ylmethyl)-carbamic acid 3-cyano-2-((E)-3-pyridin-3-yl-allanoylamino)-4,5,6,7-tetrahydro-benzo[b]thiophen-6-yl ester] | ≥ 100000 | ≤ 501 |
| CCOc1ccccc1CCC(=O)Nc1sc2c(c1C#N)CCC(OC(=O)NCc1cn(C)cn1)C2 (stereo not shown) [Example 168, (1-Methyl-1H-imidazol-4-ylmethyl)-carbamic acid 3-cyano-2-[3-(2-ethoxy-phenyl)-propanoylamino]-4,5,6,7-tetrahydro-benzo[b]thiophen-6-yl ester] | ≥ 10000 | ≤ 501 |
| CCOc1ccccc1CCC(=O)Nc1sc2c(c1C#N)CCC(OC(=O)NCc1cnoc1C)C2 (stereo not shown) [Example 204, (5-Methyl-isoxazol-4-ylmethyl)-carbamic acid 3-cyano-2-[3-(2-ethoxy-phenyl)-propanoylamino]-4,5,6,7-tetrahydro-benzo[b]thiophen-6-yl ester] | ≥ 100000 | ≤ 501 |
| CN(C)C(=O)OC1CCc2c(sc(NC(=O)/C=C/c3cccnc3)c2C#N)C1 (stereo not shown) [Example 78, Dimethyl-carbamic acid 3-cyano-2-((E)-3-pyridin-3-yl-allanoylamino)-4,5,6,7-tetrahydro-benzo[b]thiophen-6-yl ester] | ≥ 100000 | ≤ 501 |
| COc1cccc(CCC(=O)Nc2sc3c(c2C#N)CCC(COC(=O)OCc2nccs2)C3)c1 (stereo not shown) [Example 262, Carbonic acid 3-cyano-2-[3-(3-methoxy-phenyl)-propanoylamino]-4,5,6,7-tetrahydro-benzo[b]thiophen-6-ylmethyl ester thiazol-2-ylmethyl ester] | ≥ 50100 | 501 to 2000 |
| CC(CC(=O)Nc1sc2c(c1C#N)CCC(COC(=O)NC1CCOCC1)C2)c1ccccc1 (stereo not shown) [Example 309, (Tetrahydro-pyran-4-yl)-carbamic acid 3-cyano-2-(3-phenyl-butanoylamino)-4,5,6,7-tetrahydro-benzo[b]thiophen-6-ylmethyl ester] | ≥ 50100 | ≤ 501 |
| COc1cccc(C(C)CC(=O)Nc2sc3c(c2C#N)CCC(OC(=O)NCc2cccnc2)C3)c1 (stereo not shown) [Example 268, Pyridin-3-ylmethyl-carbamic acid 3-cyano-2-[3-(3-methoxy-phenyl)-butanoylamino]-4,5,6,7-tetrahydro-benzo[b]thiophen-6-yl ester] | ≥ 100000 | 501 to 2000 |
| CN(CC(O)CO)C(=O)OCC1CCc2c(sc(NC(=O)/C=C/c3cccnc3)c2C#N)C1 (stereo not shown) [Example 123, (2,3-Dihydroxy-propyl)-methyl-carbamic acid 3-cyano-2-((E)-3-pyridin-3-yl-allanoylamino)-4,5,6,7-tetrahydro-benzo[b]thiophen-6-ylmethyl ester] | ≥ 100000 | 501 to 2000 |
| CCOc1ccccc1CCC(=O)Nc1sc2c(c1C#N)CCC(COC(=O)NCc1csc(C)n1)C2 (stereo not shown) [Example 213, (2-Methyl-thiazol-4-ylmethyl)-carbamic acid 3-cyano-2-[3-(2-ethoxy-phenyl)-propanoylamino]-4,5,6,7-tetrahydro-benzo[b]thiophen-6-ylmethyl ester] | ≥ 100000 | ≤ 501 |
| N#Cc1c(NC(=O)/C=C/c2cccnc2)sc2c1CCC(OC(=O)N1CC=CC1)C2 (stereo not shown) [Example 92, 2,5-Dihydro-pyrrole-1-carboxylic acid 3-cyano-2-((E)-3-pyridin-3-yl-allanoylamino)-4,5,6,7-tetrahydro-benzo[b]thiophen-6-yl ester] | ≥ 100000 | ≤ 501 |
| COc1cccc(CCC(=O)Nc2sc3c(c2C#N)CCC(OC(=O)NCc2cc(C)no2)C3)c1 (stereo not shown) [Example 230, (3-Methyl-isoxazol-5-ylmethyl)-carbamic acid 3-cyano-2-[3-(3-methoxy-phenyl)-propanoylamino]-4,5,6,7-tetrahydro-benzo[b]thiophen-6-yl ester] | ≥ 100000 | 501 to 2000 |
| COc1cccc(CCC(=O)Nc2sc3c(c2C#N)CCC(COC(=O)NCc2cn(C)cn2)C3)c1 (stereo not shown) [Example 238, (1-Methyl-1H-imidazol-4-ylmethyl)-carbamic acid 3-cyano-2-[3-(3-methoxy-phenyl)-propanoylamino]-4,5,6,7-tetrahydro-benzo[b]thiophen-6-ylmethyl ester] | ≥ 100000 | 501 to 2000 |
| CCOc1ccccc1CCC(=O)Nc1sc2c(c1C#N)CCC(OC(=O)NCc1cc(C)on1)C2 (stereo not shown) [Example 172, (5-Methyl-isoxazol-3-ylmethyl)-carbamic acid 3-cyano-2-[3-(2-ethoxy-phenyl)-propanoylamino]-4,5,6,7-tetrahydro-benzo[b]thiophen-6-yl ester] | ≥ 100000 | ≤ 501 |
| Cc1cc(CNC(=O)OC2CCc3c(sc(NC(=O)CC(C)c4ccccc4)c3C#N)C2)n(C)n1 (stereo not shown) [Example 302, (2,5-Dimethyl-2H-pyrazol-3-ylmethyl)-carbamic acid 3-cyano-2-(3-phenyl-butanoylamino)-4,5,6,7-tetrahydro-benzo[b]thiophen-6-yl ester] | ≥ 50100 | ≤ 501 |
| COCCNC(=O)OCC1CCc2c(sc(NC(=O)CCc3cccc(OC)c3)c2C#N)C1 (stereo not shown) [Example 234, (2-Methoxy-ethyl)-carbamic acid 3-cyano-2-[3-(3-methoxy-phenyl)-propanoylamino]-4,5,6,7-tetrahydro-benzo[b]thiophen-6-ylmethyl ester] | ≥ 100000 | ≤ 501 |
| COc1cccc(C(C)CC(=O)Nc2sc3c(c2C#N)CCC(COC(=O)NCC2CCOCC2)C3)c1 (stereo not shown) [Example 328, (Tetrahydro-pyran-4-ylmethyl)-carbamic acid 3-cyano-2-[3-(3-methoxy-phenyl)-butanoyl-amino]-4,5,6,7-tetrahydro-benzo[b]thiophen-6-ylmethyl ester] | ≥ 50100 | 501 to 2000 |
| COc1cccc(C(C)CC(=O)Nc2sc3c(c2C#N)CCC(COC(=O)NCc2cccnc2)C3)c1 (stereo not shown) [Example 325, Pyridin-3-ylmethyl-carbamic acid 3-cyano-2-[3-(3-methoxy-phenyl)-butanoylamino]-4,5,6,7-tetrahydro-benzo[b]thiophen-6-ylmethyl ester] | ≥ 50100 | 501 to 2000 |
| COCCOC(=O)OC1CCc2c(sc(NC(=O)/C=C/c3cccnc3)c2C#N)C1 (stereo not shown) [Example 27, Carbonic acid 3-cyano-2-((E)-3-pyridin-3-yl-allanoylamino)-4,5,6,7-tetrahydro-benzo[b]thiophen-6-yl ester 2-methoxy-ethyl ester] | ≥ 100000 | ≤ 501 |
